In patent US20260258088A1, “DISC1-BINDING PEPTIDES AND THE USE THEREOF FOR THE TREATMENT AND DIAGNOSIS OF SCHIZOPHRENIA AND OTHER CHRONIC MENTAL DISORDERS” (FORSCHUNGSZENTRUM JUELICH GMBH, priority 2022, published 2026):
Changes are numbered by the printed parent chain. Ends that are not written are not given here.

Assays:
Settings in all cases: peptide immobilized, protein 2 μM, 25° C., TBS pH 7.4, KD = Koff/Kon
[1] = target: T1, wild-type (WT) human DISC1 C-region (residues 691-836) (Homo sapiens, UniProt Q9NRI5); assay: Bio-layer interferometry (BLI) binding of immobilized peptides to WT C-region
T1 construct: human DISC1 C-region (residues 691-836); His6 (N); made in house; host or cells: E. coli BL21 (DE3) pLysE T1R
T1 sequence (Q9NRI5 691-836): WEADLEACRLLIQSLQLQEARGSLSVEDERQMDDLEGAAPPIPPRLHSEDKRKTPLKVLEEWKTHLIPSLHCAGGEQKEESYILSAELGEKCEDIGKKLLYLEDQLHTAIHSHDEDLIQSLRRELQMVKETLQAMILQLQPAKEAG
Method: Protein expression and purification. The wild-type (WT) human DISC1 C-region (residues 691-836) was expressed alternatively as N-terminal His6—fusion construct, which was expressed as previously described using the E. coli BL21 (DE3) pLysE T1R cells. The culture was grown either in Luria-Bertani (LB) broth and protein expression was induced at an OD600 of 0.6 by the addition of 1 mM isopropyl-β-D-thiogalactopyranoside (IPTG) for 16 h at 18° C. Harvested cells were lysed using an ice-chilled microfluidizer M100P (Microfluidics MPT) at 15, 000 PSI in Tris-buffered saline (TBS) buffer containing 10 mM Tris-HCl pH 7.4, 150 mM NaCl and Complete EDTA-free protease inhibitor cocktail (Roche). The soluble fraction was purified on Co^2+-NTA resin (Qiagen) and was eluted using TBS containing 500 mM imidazole. In the next step, the WT C-region protein was further purified on a HiLoad 16/60 Superdex 200 size exclusion chromatography column (GE Healthcare Bio Sciences).
(§1) Bio-layer interferometry (BLI) for identification of peptide leads. Binding of the peptides with the C-region constructs (WT, S713E, S704C and L807-FS) were investigated using an Octet (ForteBio) instrument. Prior to measurements, all peptides were solubilized in phosphate buffered saline (PBS) containing 20 mM Na-phosphate, pH 7.4, and 150 mM NaCl. For coupling of the peptide (ligand), the A2RG sensor chip (Sartorius GmbH) were activated with 1-ethyl-3-(3-dimethylaminopropyl) carbodiimide (EDC)/N hydroxysuccinimide (NHS) (200 mM/50 mM); the peptides were diluted to 2 μM in 10 mM sodium acetate, pH 4.0, and immobilized to the sensor chip, and the flow cell was deactivated with 0.1 M ethanolamine-HCl, pH 8.5. Titrations of the above-mentioned C-region and the constructs were performed at 25° C. with TBS, pH 7.4 as the running buffer using protein concentrations of 2 μM without intermittent regeneration.
Data analysis of peptide-protein interaction. In order to assess the binding isotherms of the protein to the immobilized peptides, I derived the binding affinity (KD) by computing the on-rate (Kon) and the off-rate (Koff) by deriving the reciprocals of the exponential fittings of association and dissociation (OriginPro 2020).
The binding affinity (KD) was derived by dividing the off-rate (Koff) with the on-rate (Kon).

[2] = target: T2, DISC1 C-region (residues 691-836) mutant S704C (Homo sapiens, UniProt Q9NRI5, S704C); assay: Bio-layer interferometry (BLI) binding of immobilized peptides to S704C C-region
T2 construct: DISC1 C-region (residues 691-836) mutant versions S704C, and/or 713E and/or L807-FS
T2 sequence (Q9NRI5 691-836 S704C): T1 sequence (Q9NRI5 691-836) with S14C
Method: as §1, with “regeneration. Data analysis of peptide-protein interaction. In order to assess the binding isotherms of the protein to the immobilized peptides, I derived the binding affinity (KD) by computing the on-rate (Kon) and the off-rate (Koff) by deriving the reciprocals of the exponential fittings of association and dissociation (OriginPro 2020). The binding affinity (KD) was derived by dividing the off-rate (Koff) with the on-rate (Kon).” for “regeneration.”

[3] = target: DISC1 C-region (residues 691-836) mutant L807-FS; assay: Bio-layer interferometry (BLI) binding of immobilized peptides to L807-FS C-region; design: species or system human
Method: as §1, with “regeneration. Data analysis of peptide-protein interaction. In order to assess the binding isotherms of the protein to the immobilized peptides, I derived the binding affinity (KD) by computing the on-rate (Kon) and the off-rate (Koff) by deriving the reciprocals of the exponential fittings of association and dissociation (OriginPro 2020). The binding affinity (KD) was derived by dividing the off-rate (Koff) with the on-rate (Kon).” for “regeneration.”

[4] = target: T3, DISC1 C-region (residues 691-836) mutant S713E (Homo sapiens, UniProt Q9NRI5, S713E); assay: Bio-layer interferometry (BLI) binding of immobilized peptides to S713E C-region
T3 construct: DISC1 C-region (residues 691-836) mutant versions S704C, and/or 713E and/or L807-FS
T3 sequence (Q9NRI5 691-836 S713E): T1 sequence (Q9NRI5 691-836) with S23E
Method: as §1, with “regeneration. Data analysis of peptide-protein interaction. In order to assess the binding isotherms of the protein to the immobilized peptides, I derived the binding affinity (KD) by computing the on-rate (Kon) and the off-rate (Koff) by deriving the reciprocals of the exponential fittings of association and dissociation (OriginPro 2020). The binding affinity (KD) was derived by dividing the off-rate (Koff) with the on-rate (Kon).” for “regeneration.”

Kd [1] [nM]	Kd [2] [nM]	Kd [3] [nM]	Kd [4] [nM]	Substance
1270	720	540	420	HKLHHLLKWENQHKVE-NH2 [Flm11, HKLHHLLKWENQHKVE-NH2]
2620	1040	170	460	KYTAIHEWYKAHNGGA-NH2 [Flo8, KYTAIHEWYKAHNGGA-NH2]
640	150	110	80	GIKSLISNKMHTQWNY-NH2 [Flm5, GIKSLISNKMHTQWNY-NH2]
2620	270	400	420	HISMQTYKWSQWAKHQ-NH2 [Flo3, HISMQTYKWSQWAKHQ-NH2]
3680	1060	160	890	TSGVPWWKFQQQVRRT-NH2 [Flo11, TSGVPWWKFQQQVRRT-NH2]
250	360	270	210	QDNPWWHEHKHWKSWP-NH2 [Flo5, QDNPWWHEHKHWKSWP-NH2]
3200	1490	390	1500	PWYNAPHSHGFWGSGR-NH2 [Flm9, PWYNAPHSHGFWGSGR-NH2]
2010	2240	530	1070	WNHPMNIRSISWHKDS-NH2 [Flm6, WNHPMNIRSISWHKDS-NH2]
150	80	200	80	IWAGHIHDWWRRGQGS-NH2 [Flm1, IWAGHIHDWWRRGQGS-NH2]
640	150	110	220	AWQHHELKWKQYQGWR-NH2 [Flm2, AWQHHELKWKQYQGWR-NH2]
2360	720	170	460	SNWHPRHFFMSPSSPQ-NH2 [Flo6, SNWHPRHFFMSPSSPQ-NH2]
100	160	40	70	FPHPTLKHREFMRHVS-NH2 [Flo1, FPHPTLKHREFMRHVS-NH2]
